Columns and labels:
Type in all cases: cell-based
[1] = biological target: T1, Cav1.2/β3/α2δ (Homo sapiens, UniProt Q13936); experiment: Two-electrode voltage clamp of Cav1.2/β3/α2δ expressed in Xenopus oocytes (Ba2+ as charge carrier); conditions: for ICa I/I0: relative current at 0 mV
T1 construct: expressed in transfected cells; host or cells: Xenopus laevis oocytes (cRNA injection, Cav1.2:β3:α2δ 2:1:1 by weight)
Experimental: (§1) Molecular Biology cRNA encoding Kv7.1 (UniProt: P51787), KCNE1 (UniProt: P15382.1), Nav1.5 (UniProt: Q14524.1), Nav β1 (UniProt: […]), Nav β3 (UniProt: […]), Cav1.2 (GenBank: CAA84346), Cav β3 (Uniprot: P54286), Cav β2 (Uniprot: P54288), and Cav α2δ (Uniprot: P13806) were transcribed using the mMessage mMachine T7 kit (Ambion). 50 ng of cRNA was injected into defolliculated Xenopus laevis oocytes (Ecocyte, Austin, TX): For Kv7.1/KCNE1 channel expression, we injected a 3:1, weight:weight (Kv7.1:KCNE1) cRNA ratio. For Nav1.5 channel expression, we injected a 2:1, weight:weight (Nav1.5:β1) cRNA ratio. For Cav1.2 channel expression, we injected a 2:1:1, weight:weight (Cav1.2:β3:α2δ) cRNA ratio. The exact stoichiometry for channel macromolecular complexes, including α -subunits and auxiliary subunits is not clear for many ion channels. For example, there have been multiple reported stoichiometries for Kv7.1:KCNE1 determined in heterologous expression systems with some groups reporting flexible stoichiometry of 4 Kv7.1: 1–4 KCNE1 and others reporting a fixed stoichiometry of 4 Kv7.1: 2 KCNE1 ([Murray et al., 2016]; [Nakajo et al., 2010]). The ratios of cRNA of α- and auxiliary subunits that we injected in Xenopus laevis oocytes are such that all α-subunits are assumed to be in complex with auxiliary subunits. This allows a more homogenous population of ion channels with auxiliary subunits. One caveat to expressing ion channels as macromolecular complexes is that there are many other auxiliary subunits that could associate with the channel α -subunit that are present in cardiomyocytes and have the potential to alter PUFA-induced effects, but that are not being co-expressed in our experiments. In this work, we are co-expressing some of the auxiliary subunits that have been primarily reported to associate with their respective α -subunits in cardiomyocytes. Following cRNA injection, cells were incubated for 72–96 hr in standard ND96 solution (96 mM NaCl, 2 mM KCl, 1 mM MgCl2, 1.8 mM CaCl2, 5 mM HEPES; pH = 7.5) containing 1 mM pyruvate at 16°C prior to electrophysiological recordings.
(§2) Xenopus laevis oocytes were recorded in the two-electrode voltage clamp (TEVC) configuration. Recording pipettes were filled with 3 M KCl. The recording chamber was filled with ND96 (96 mM NaCl, 2 mM KCl, 1 mM MgCl2, 1.8 mM CaCl2, 5 mM HEPES; pH 7.5). For Cav1.2/β3/α2δ channel recordings, Xenopus oocytes were injected with 50 nl of 100 mM EGTA and incubated at 10°C for 30 min prior to electrophysiological recordings in order to sequester cytosolic calcium. In addition, Cav1.2/β3/α2δ channel recordings were done in Ca^2+-free solutions, using Ba^2+ as the charge carrier, to prevent calcium-dependent inactivation of Cav1.2/β3/α2δ channels. Calcium-dependent inactivation was not studied in this work, due to the presence of large calcium-activated chloride currents present in Xenopus laevis oocytes. PUFAs were obtained from Cayman Chemical (Ann Arbor, MI.) or synthesized in house (Linköping, Sweden) through methods previously described ([Bohannon et al., 2020]) and kept at −20 °C as 100 mM stock solutions in ethanol. Serial dilutions of the different PUFAs were prepared from stocks to make 0.2 μM, 0.7 μM, 2 μM, 7 μM, and 20 μM concentrations in ND96 solutions (pH = 7.5). PUFAs were perfused into the recording chamber using the Rainin Dynamax Peristaltic Pump (Model RP-1) (Rainin Instrument Co., Oakland, CA. USA).
(§3) Electrophysiological recordings were obtained using Clampex 10.3 software (Axon, pClamp, Molecular Devices). To measure Kv7.1/KCNE1 currents we apply PUFAs as the membrane potential is stepped every 30 s from −80 mV to 0 mV for 5 s before stepping to −40 mV and back to −80 mV to ensure that the PUFA effects on the current at 0 mV reached steady state. A voltage-step protocol was used to measure the current vs. voltage (I-V) relationship before PUFA application and after the PUFA effects had reached steady state for each concentration of PUFA. […]

[2] = biological target: T2, Nav1.5/β1 (Homo sapiens, UniProt Q14524); experiment: Two-electrode voltage clamp of Nav1.5/β1 expressed in Xenopus oocytes; conditions: for INa I/I0: relative current at 0 mV
T2 construct: Nav1.5 (UniProt: Q14524.1); expressed in transfected cells; host or cells: Xenopus laevis oocytes (cRNA injection, Nav1.5:β1 2:1 by weight)
Experimental: as §1, §2, §3

[3] = biological target: T3, Cav1.2/β2/α2δ (Homo sapiens, UniProt Q13936); experiment: Two-electrode voltage clamp of Cav1.2/β2/α2δ expressed in Xenopus oocytes; conditions: co-expression with β2 subunit instead of β3
T3 construct: expressed in transfected cells; host or cells: Xenopus laevis oocytes (cRNA injection; no ratio printed for the β2 combination)
Experimental: Molecular Biology cRNA encoding Kv7.1 (UniProt: P51787), KCNE1 (UniProt: P15382.1), Nav1.5 (UniProt: Q14524.1), Nav β1 (UniProt: […]), Nav β3 (UniProt: […]), Cav1.2 (GenBank: CAA84346), Cav β3 (Uniprot: P54286), Cav β2 (Uniprot: P54288), and Cav α2δ (Uniprot: P13806) were transcribed using the mMessage mMachine T7 kit (Ambion). 50 ng of cRNA was injected into defolliculated Xenopus laevis oocytes (Ecocyte, Austin, TX): For Kv7.1/KCNE1 channel expression, we injected a 3:1, weight:weight (Kv7.1:KCNE1) cRNA ratio. For Nav1.5 channel expression, we injected a 2:1, weight:weight (Nav1.5:β1) cRNA ratio. For Cav1.2 channel expression, we injected a 2:1:1, weight:weight (Cav1.2:β3:α2δ) cRNA ratio. The exact stoichiometry for channel macromolecular complexes, including α -subunits and auxiliary subunits is not clear for many ion channels. For example, there have been multiple reported stoichiometries for Kv7.1:KCNE1 determined in heterologous expression systems with some groups reporting flexible stoichiometry of 4 Kv7.1: 1–4 KCNE1 and others reporting a fixed stoichiometry of 4 Kv7.1: 2 KCNE1 ([Murray et al., 2016]; [Nakajo et al., 2010]). […]
Xenopus laevis oocytes were recorded in the two-electrode voltage clamp (TEVC) configuration. […]

T1 sequence (Q13936 1-2138 isoform Q13936-20): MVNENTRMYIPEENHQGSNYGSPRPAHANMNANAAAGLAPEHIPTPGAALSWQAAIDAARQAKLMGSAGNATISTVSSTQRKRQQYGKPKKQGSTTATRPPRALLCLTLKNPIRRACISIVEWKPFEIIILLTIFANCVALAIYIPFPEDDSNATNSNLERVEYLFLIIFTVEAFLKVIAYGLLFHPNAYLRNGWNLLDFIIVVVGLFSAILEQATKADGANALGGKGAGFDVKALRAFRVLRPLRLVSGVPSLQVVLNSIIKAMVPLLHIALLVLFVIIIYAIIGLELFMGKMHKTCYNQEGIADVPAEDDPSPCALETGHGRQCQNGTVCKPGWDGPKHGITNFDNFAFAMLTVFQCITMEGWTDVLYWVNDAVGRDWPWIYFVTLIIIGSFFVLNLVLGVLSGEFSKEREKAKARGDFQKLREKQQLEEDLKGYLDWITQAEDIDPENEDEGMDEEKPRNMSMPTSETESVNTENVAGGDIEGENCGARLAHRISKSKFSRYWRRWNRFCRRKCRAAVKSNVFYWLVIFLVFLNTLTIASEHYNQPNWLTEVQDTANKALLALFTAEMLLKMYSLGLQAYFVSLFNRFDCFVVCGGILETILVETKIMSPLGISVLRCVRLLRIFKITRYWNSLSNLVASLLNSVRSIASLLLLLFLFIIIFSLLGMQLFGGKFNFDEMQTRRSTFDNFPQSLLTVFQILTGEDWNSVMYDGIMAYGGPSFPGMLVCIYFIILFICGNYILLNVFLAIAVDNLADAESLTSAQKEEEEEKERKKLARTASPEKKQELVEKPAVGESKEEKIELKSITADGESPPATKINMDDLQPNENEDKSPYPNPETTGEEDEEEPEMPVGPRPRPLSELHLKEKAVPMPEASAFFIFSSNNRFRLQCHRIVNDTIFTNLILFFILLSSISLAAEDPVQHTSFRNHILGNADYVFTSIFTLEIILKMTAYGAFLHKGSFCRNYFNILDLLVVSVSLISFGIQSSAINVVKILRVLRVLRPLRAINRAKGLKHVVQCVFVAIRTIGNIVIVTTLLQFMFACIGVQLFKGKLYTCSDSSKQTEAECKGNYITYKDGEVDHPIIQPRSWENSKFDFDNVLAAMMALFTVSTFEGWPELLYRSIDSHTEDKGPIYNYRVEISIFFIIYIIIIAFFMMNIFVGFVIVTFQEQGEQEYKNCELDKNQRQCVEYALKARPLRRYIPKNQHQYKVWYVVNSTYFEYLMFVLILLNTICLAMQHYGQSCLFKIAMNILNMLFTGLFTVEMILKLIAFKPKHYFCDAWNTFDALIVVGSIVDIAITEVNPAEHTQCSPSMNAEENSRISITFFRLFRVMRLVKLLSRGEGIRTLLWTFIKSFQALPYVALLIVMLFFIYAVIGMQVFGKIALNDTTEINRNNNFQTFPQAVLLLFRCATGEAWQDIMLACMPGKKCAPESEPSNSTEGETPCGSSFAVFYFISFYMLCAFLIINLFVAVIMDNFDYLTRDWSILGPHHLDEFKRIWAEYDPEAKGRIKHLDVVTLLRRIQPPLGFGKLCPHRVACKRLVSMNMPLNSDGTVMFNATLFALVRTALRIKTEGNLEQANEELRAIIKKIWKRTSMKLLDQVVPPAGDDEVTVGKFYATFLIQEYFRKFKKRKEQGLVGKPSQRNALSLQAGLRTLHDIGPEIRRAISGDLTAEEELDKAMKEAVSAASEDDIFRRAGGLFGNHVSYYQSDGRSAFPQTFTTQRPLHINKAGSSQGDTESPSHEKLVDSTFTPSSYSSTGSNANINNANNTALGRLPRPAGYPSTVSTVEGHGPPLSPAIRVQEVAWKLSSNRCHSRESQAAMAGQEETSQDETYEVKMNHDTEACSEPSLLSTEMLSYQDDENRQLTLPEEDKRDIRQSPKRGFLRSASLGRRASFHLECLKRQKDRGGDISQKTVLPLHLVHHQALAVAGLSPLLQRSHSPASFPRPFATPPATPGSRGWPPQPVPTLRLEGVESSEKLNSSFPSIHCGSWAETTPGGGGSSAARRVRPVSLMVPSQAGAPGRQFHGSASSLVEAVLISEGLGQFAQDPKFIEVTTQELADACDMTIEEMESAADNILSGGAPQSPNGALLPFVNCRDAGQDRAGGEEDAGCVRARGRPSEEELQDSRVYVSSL
T1 sequence (P54286 whole entry partner): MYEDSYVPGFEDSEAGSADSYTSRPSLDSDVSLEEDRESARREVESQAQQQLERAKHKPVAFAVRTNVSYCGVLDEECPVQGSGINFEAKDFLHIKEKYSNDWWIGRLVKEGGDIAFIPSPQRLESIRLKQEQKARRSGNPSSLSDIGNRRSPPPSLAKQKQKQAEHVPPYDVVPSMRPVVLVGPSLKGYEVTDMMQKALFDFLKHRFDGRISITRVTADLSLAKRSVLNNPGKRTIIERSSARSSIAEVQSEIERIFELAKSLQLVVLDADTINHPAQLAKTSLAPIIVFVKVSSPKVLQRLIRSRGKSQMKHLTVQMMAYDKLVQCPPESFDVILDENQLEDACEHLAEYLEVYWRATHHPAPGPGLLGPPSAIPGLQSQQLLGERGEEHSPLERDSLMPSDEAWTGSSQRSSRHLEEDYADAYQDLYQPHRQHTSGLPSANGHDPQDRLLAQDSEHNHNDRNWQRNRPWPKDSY
T1 sequence (P13806 27-960 partner): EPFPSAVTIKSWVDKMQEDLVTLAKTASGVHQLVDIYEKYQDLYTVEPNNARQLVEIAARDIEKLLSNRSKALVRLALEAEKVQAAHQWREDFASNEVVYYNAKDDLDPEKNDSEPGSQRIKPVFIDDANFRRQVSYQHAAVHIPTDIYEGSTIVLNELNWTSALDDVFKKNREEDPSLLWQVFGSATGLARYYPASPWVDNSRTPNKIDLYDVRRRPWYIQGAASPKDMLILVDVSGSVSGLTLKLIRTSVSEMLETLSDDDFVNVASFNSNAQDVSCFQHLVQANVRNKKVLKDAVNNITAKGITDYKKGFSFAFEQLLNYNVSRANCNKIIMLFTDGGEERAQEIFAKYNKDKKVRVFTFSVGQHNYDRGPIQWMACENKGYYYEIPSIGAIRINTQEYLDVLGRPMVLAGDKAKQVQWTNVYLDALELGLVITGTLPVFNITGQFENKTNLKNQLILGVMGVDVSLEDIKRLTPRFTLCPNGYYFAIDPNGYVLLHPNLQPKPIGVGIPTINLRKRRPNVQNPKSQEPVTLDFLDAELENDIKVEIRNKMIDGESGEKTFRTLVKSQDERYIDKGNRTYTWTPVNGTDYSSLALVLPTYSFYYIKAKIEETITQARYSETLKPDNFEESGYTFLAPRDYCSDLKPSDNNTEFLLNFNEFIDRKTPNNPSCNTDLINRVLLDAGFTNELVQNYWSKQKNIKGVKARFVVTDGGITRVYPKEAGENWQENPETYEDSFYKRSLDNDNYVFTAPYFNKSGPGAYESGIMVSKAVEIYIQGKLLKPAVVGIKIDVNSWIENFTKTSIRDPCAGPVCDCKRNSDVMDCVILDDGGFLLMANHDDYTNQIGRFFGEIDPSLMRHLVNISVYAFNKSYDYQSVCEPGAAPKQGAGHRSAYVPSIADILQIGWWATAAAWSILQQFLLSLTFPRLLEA
T1 sequence (P13806 961-1106 partner): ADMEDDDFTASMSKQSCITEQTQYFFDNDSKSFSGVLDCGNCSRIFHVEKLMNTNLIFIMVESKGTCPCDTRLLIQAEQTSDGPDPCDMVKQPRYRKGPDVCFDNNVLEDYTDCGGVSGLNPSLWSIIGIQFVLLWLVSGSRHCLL
T3 sequence (Q13936 1-2138 isoform Q13936-20, other chains not shown): as the sequence (Q13936 1-2138 isoform Q13936-20) above
T3 sequence (P13806 27-960 partner, other chains not shown): as the sequence (P13806 27-960 partner) above
T3 sequence (P13806 961-1106 partner, other chains not shown): as the sequence (P13806 961-1106 partner) above

Compound	Gmax/Gmax0 ([1]; 0.2 μM)	ΔV0.5 (voltage dependence of inactivation) ([1]; 0.2 μM)	ICa I/I0 ([1]; 0.2 μM)	Gmax/Gmax0 ([1]; 0.7 μM)	ΔV0.5 (voltage dependence of inactivation) ([1]; 0.7 μM)	ICa I/I0 ([1]; 0.7 μM)	Gmax/Gmax0 ([1]; 2 μM)	ΔV0.5 (voltage dependence of inactivation) ([1]; 2 μM)	ICa I/I0 ([1]; 2 μM)	Gmax/Gmax0 ([1]; 7 μM)	ΔV0.5 (voltage dependence of inactivation) ([1]; 7 μM)	Gmax/Gmax0 ([1]; 20 μM)	ΔV0.5 (voltage dependence of inactivation) ([1]; 20 μM)	ICa I/I0 ([1]; 20 μM)	Gmax/Gmax0 ([2]; 0.2 μM)	ΔV0.5 (voltage dependence of inactivation) ([2]; 0.2 μM)	INa I/I0 ([2]; 0.2 μM)	Gmax/Gmax0 ([2]; 0.7 μM)	ΔV0.5 (voltage dependence of inactivation) ([2]; 0.7 μM)	INa I/I0 ([2]; 0.7 μM)	further results
CCCCC/C=C\C/C=C\CCCCCCCC(=O)NCCS(=O)(=O)O [Lin-taurine, Linoleoyl taurine]	1.0 ± 0.02	0.6 ± 0.5 mV	1.0 ± 0.02	0.9 ± 0.02	0.9 ± 0.9 mV	0.9 ± 0.1	0.7 ± 0.05	-0.3 ± 1.8 mV	0.7 ± 0.1	0.6 ± 0.05	−1.9 ± 2.5 mV	0.5 ± 0.04	-1.2 ± 4.4 mV	0.5 ± 0.1	1.0 ± 0.01	-0.3 ± 0.1 mV	1.0 ± 0.01	1.0 ± 0.01	-2.2 ± 0.7 mV	1.0 ± 0.05	ΔV0.5 (voltage dependence of inactivation) ([1]; 7 μM, listed as lin-taurine): -1.9 ± 2.5 mV; ICa I/I0 ([1]; 7 μM): 0.6 ± 0.1 (p=0.01); ICa I/I0 ([1]; 7 μM, listed as lin-taurine): 0.6 ± 0.1; shift of the voltage dependence of activation ([1]; 0.2-20 μM): without shifting the voltage-dependence of Cav1.2/β3/α2δ activation; Gmax/Gmax0 ([2]; 2 μM): 0.9 ± 0.05; ΔV0.5 (voltage dependence of inactivation) ([2]; 2 μM): -8.8 ± 1.7 mV; INa I/I0 ([2]; 2 μM): 0.6 ± 0.07; Gmax/Gmax0 ([2]; 7 μM): 0.5 ± 0.07; ΔV0.5 (voltage dependence of inactivation) ([2]; 7 μM): −23.5 ± 1.9 mV; ΔV0.5 (voltage dependence of inactivation) ([2]; 7 μM, listed as lin-taurine): -23.5 ± 1.9 mV; INa I/I0 ([2]; 7 μM): 0.1 ± 0.02 (p=0.0001); INa I/I0 ([2]; 7 μM, listed as lin-taurine): 0.1 ± 0.02; Gmax/Gmax0 ([2]; 20 μM): 0.3 ± 0.04; ΔV0.5 (voltage dependence of inactivation) ([2]; 20 μM): -34.9 ± 1.5 mV; INa I/I0 ([2]; 20 μM): 0.1 ± 0.01; shift of the voltage dependence of activation ([2]; 0.2-20 μM): no shift in the voltage dependence of activation; response of Cav1.2/β2/α2δ compared with Cav1.2/β3/α2δ [3]: no differences between Cav1.2/β3/α2δ and Cav1.2/β2/α2δ
CCCCC/C=C\C/C=C\CCCCCCCC(=O)NCC(=O)O [Lin-glycine]	1.1 ± 0.03	0.1 ± 1.7 mV	0.9 ± 0.1	1.1 ± 0.04	-0.7 ± 1.8 mV	0.9 ± 0.1	1.2 ± 0.1	-2.9 ± 1.4 mV	0.9 ± 0.1	1.0 ± 0.1	−3.0 ± 1.6 mV	1.0 ± 0.1	-3.7 ± 1.5 mV	0.7 ± 0.1	1.0 ± 0.03	-0.2 ± 0.06 mV	1.0 ± 0.03	1.0 ± 0.05	-1.2 ± 0.3 mV	1.0 ± 0.04	ΔV0.5 (voltage dependence of inactivation) ([1]; 7 μM, listed as lin-glycine): -3.0 ± 1.6 mV; ICa I/I0 ([1]; 7 μM, listed as lin-glycine): 0.8 ± 0.1; Gmax/Gmax0 ([2]; 2 μM): 0.9 ± 0.06; ΔV0.5 (voltage dependence of inactivation) ([2]; 2 μM): -4.3 ± 0.8 mV; INa I/I0 ([2]; 2 μM): 0.9 ± 0.1; Gmax/Gmax0 ([2]; 7 μM): 0.5 ± 0.1; ΔV0.5 (voltage dependence of inactivation) ([2]; 7 μM): −15.2 ± 2.8 mV; ΔV0.5 (voltage dependence of inactivation) ([2]; 7 μM, listed as lin-glycine): -15.2 ± 2.8 mV; INa I/I0 ([2]; 7 μM): 0.5 ± 0.1 (p=0.02); INa I/I0 ([2]; 7 μM, listed as lin-glycine): 0.5 ± 0.1; Gmax/Gmax0 ([2]; 20 μM): 0.2 ± 0.02; ΔV0.5 (voltage dependence of inactivation) ([2]; 20 μM): -21.7 ± 1.2 mV; INa I/I0 ([2]; 20 μM): 0.3 ± 0.02; response of Cav1.2/β2/α2δ compared with Cav1.2/β3/α2δ [3]: no differences between Cav1.2/β3/α2δ and Cav1.2/β2/α2δ

Source: PMC7159882, “Polyunsaturated fatty acid analogues differentially affect cardiac NaV, CaV, and KV channels through unique mechanisms” (eLife, 2020)
